From ChEMBL document CHEMBL5032522, “N-2-(phenylamino) benzamide derivatives as novel anti-glioblastoma agents: Synthesis and biological evaluation” (Eur J Med Chem, 2021) come the findings set out here.

Data set [1] relates to U-251. The experiment in a line: Induction of cell cycle arrest in human U-251 cells assessed as accumulation of cells at G2/M phase incubated for 72 hrs by propidium iodide/RNase A staining based flow cytometry analysis. The format is functional. (A flow cytometer gives signals particle by particle.)
Data set [2] is described as follows: Tmax in Sprague-Dawley rat at 100 mg/kg, ip measured up to 24 hrs by LC-MS analysis. The settings on record: in vivo. Type of data set: ADME, organism-based.
The nature of data set [3]: Drug concentration in Sprague-Dawley rat plasma at 100 mg/kg, ip measured 6 hrs post administration by LC-MS analysis. The format is ADME, organism-based.
For data set [4], the system named is C6. The experiment in a line: Antitumor activity against rat C6 cells inoculated orthotopic Sprague-Dawley rat model assessed as reduction in tumor weight at 100 mg/kg, ip bid administered for 14 days by MRI scanner. The format is functional, organism-based. Conditions: time 14.0 day.
Data set [5] deals with U-87 MG. The data set is described as follows: Inhibition of colony formation in human U-87 MG cells measured after 8 days by crystal violet staining based assay. Type of data set: functional, cell-based. Conditions: U-87MG ATCC, time 8.0 day.
A short description of data set [6]: Drug concentration in Sprague-Dawley rat brain at 100 mg/kg, ip measured 6 hrs post administration by LC-MS analysis. The format is ADME, organism-based. The settings on record: read-out: Ct.
In data set [7] the test system is U-87 MG. The data set is described as follows: Antiproliferative activity against human U-87 MG cells assessed as inhibition of cell growth measured up to 72 hrs by CCK-8 assay. The format is functional, cell-based. Conditions: U-87MG ATCC, time hrs <=72.
Data set [8] is described as follows: Half life in Sprague-Dawley rat at 100 mg/kg, ip measured up to 24 hrs by LC-MS analysis. The format is ADME, organism-based. Conditions: in vivo.
The test system of data set [9] is U-251. The data set is described as follows: Induction of morphological changes in human U-251 cells assessed as appearance of shrunken cell bodies at 3.3 uM incubated for 72 hrs by Giemsa staining based light microscopic method. The format is functional.
Data set [10] relates to U-251. The experiment in a line: Induction of morphological changes in human U-251 cells assessed as appearance of spindle cell shape at 3.3 uM incubated for 72 hrs by Giemsa staining based light microscopic method. Type of data set: functional.
Data set [11] in a line: Acute toxicity in Kunming mouse assessed as death at 1000 mg/kg, ip administered as single dose observed every day for 14 days. The settings on record: in vivo, 336 h, time 14 day. Type of data set: organism-based.
Data set [12] has as its target T1, DNA topoisomerase 1 (Homo sapiens) (UniProt P11387).
T1 sequence (whole entry): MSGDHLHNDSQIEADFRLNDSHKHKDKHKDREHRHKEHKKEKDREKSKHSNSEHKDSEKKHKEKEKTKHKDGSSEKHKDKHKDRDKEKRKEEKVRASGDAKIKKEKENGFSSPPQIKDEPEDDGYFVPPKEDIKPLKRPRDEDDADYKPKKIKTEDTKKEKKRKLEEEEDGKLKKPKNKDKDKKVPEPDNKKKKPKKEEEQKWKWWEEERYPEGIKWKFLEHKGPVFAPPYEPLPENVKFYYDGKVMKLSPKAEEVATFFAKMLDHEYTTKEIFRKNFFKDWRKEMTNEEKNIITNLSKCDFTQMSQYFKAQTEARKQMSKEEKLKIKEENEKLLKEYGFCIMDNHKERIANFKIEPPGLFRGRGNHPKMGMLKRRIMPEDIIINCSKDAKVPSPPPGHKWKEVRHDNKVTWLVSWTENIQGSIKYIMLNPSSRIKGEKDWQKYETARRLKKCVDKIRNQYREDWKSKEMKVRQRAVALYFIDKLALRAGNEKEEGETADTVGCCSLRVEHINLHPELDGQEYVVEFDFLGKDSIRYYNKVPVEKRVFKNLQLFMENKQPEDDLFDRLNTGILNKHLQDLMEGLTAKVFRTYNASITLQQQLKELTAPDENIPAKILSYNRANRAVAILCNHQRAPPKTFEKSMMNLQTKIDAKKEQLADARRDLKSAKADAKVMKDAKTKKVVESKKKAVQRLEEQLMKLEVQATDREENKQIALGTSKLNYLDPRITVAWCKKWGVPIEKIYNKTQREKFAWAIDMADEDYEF
The experiment in a line: Inhibition of human topoisomerase I using DNA pBR322 as substrate assessed as DNA intercalation at 100 uM incubated for 30 mins by ethidium bromide staining based agarose gel electrophoresis method.

Data set [13] has as its target T2, DNA topoisomerase 1 (Homo sapiens, UniProt P11387).
T2 sequence (P11387 whole entry): T1 sequence (whole entry)
The experiment in a line: Inhibition of human topoisomerase I using DNA pBR322 as substrate assessed as DNA relaxation incubated for 45 mins by ethidium bromide staining based agarose gel electrophoresis.

Data set [14] in a line: Cmax in Sprague-Dawley rat at 100 mg/kg, ip measured up to 24 hrs by LC-MS analysis. The format is ADME, organism-based. Details: route intraperitoneal, dose 100 mg/kg, time <=24. The settings on record: in vivo.
Data set [15] concerns U-87 MG. The data set is described as follows: Induction of morphological changes in human U-87 MG cells assessed as membrane blebbing at 3.3 uM incubated for 72 hrs by Giemsa staining based light microscopic method. Type of data set: functional, cell-based. Conditions: U-87MG ATCC.
Data set [16] is described as follows: AUC ( 0 to infinity) in Sprague-Dawley rat at 100 mg/kg, ip measured up to 24 hrs by LC-MS analysis. The format is ADME, organism-based. Details: route intraperitoneal, dose 100 mg/kg, time <=24. Conditions: in vivo.
A short description of data set [17]: Ratio of drug concentration in brain to plasma in Sprague-Dawley rat at 100 mg/kg, ip measured 6 hrs post administration by LC-MS/MS analysis. The format is ADME, organism-based. The settings on record: read-out: BPR.
Data set [18] concerns the target T3, Prostaglandin G/H synthase 2 (Homo sapiens, UniProt P35354).
T3 sequence (P35354 whole entry): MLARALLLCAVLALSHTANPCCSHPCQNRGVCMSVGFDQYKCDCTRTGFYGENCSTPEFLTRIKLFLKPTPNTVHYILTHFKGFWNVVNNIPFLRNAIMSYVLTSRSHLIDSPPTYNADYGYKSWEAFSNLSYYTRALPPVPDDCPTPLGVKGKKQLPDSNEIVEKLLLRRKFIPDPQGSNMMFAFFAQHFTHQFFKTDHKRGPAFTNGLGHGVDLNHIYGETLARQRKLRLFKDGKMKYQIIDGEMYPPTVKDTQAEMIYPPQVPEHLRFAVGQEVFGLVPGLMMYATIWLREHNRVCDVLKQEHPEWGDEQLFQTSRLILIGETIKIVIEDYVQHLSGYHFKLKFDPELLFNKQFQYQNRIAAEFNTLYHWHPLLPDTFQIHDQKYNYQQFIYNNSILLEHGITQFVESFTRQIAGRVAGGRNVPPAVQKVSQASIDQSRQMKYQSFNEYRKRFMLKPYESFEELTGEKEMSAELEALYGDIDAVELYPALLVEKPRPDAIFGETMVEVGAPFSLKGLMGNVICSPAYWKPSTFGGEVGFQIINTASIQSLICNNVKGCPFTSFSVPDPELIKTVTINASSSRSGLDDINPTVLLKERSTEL
The data set is described as follows: Inhibition of human recombinant COX-2 using arachidonic acid as substrate preincubated 10 mins followed by substrate addition and measured after 2 mins by ELISA. (In general: ELISA stands for enzyme-linked immunosorbent assay.)

The subject of data set [19] is U-251. The data set is described as follows: Induction of cell cycle arrest in human U-251 cells assessed as reduction in G0/G1 phase accumulation at 10 uM incubated for 72 hrs by propidium iodide/RNase A staining based flow cytometry (reference value: 79.12%). Type of data set: functional. More on the design: scale not given: the % may be the effect or the level left.

Data set [20] in a line: AUC (0 to t) in Sprague-Dawley rat at 100 mg/kg, ip measured up to 24 hrs by LC-MS analysis. Type of data set: ADME, organism-based. Details: route intraperitoneal, dose 100 mg/kg, time <=24. The settings on record: in vivo.
Data set [21] has as its system U-251. The experiment in a line: Antiproliferative activity against human U-251 cells assessed as inhibition of cell growth measured up to 72 hrs by CCK-8 assay. The format is functional, cell-based. The settings on record: time hrs <=72. (In general: Formazan colour is commonly taken as a measure of viable cells.)

Structures are written as SMILES. Calls of active or inactive are those of the source.

Take `Cc1c(Cl)cccc1Nc1ccccc1C(=O)Nc1ccc2c(c1)OCO2`: the Activity entry was “Dose-Dependent Effect” in data set [1]; “Dose-Dependent Effect” in data set [7]; “Toxic” in data set [11]; 25.36% in data set [19]; “Dose-Dependent Effect” in [21]. Moreover, the Tmax in data set [2] was determined as 3.33 h. Also, the concentration at 6 h came out at 4990 ng/mL in data set [3] and 1410 ng/mL in data set [6]. For the same compound, the result in data set [4], in data set [9], in data set [10] and in data set [15] was Active. The inhibition entry in data set [5] is “Dose-Dependent Effect”. Also, the half-life in data set [8] was 8.36 h. Besides, the inhibition entry in data set [12] is “Active”. In addition, the IC50 in data set [13] came out at 47.6 µM; in data set [18], 45 µM. Besides, the Cmax in data set [14] came out at 8870 ng/mL. Besides, in [16], the AUC(0-inf) was 49200 ng·h/mL. In data set [17], the Kp at 6 h turned out to be 0.29. In [20], this compound had an AUC(0-t) at 24 h of 46200 ng·h/mL.

On to `COc1ccc(NC(=O)c2ccccc2Nc2cccc(Cl)c2C)cc1`, for which the Activity result in data set [1] was “Dose-Dependent Effect”; in data set [7], “Dose-Dependent Effect”; in data set [11], “Toxic”; in data set [19], 26.28%; in data set [21], “Dose-Dependent Effect”. The time to peak (Tmax) in data set [2] was 3.33 h. Further, the concentration at 6 h turned out to be 5790 ng/mL in data set [3] and 3380 ng/mL in [6]. The outcome in data set [4], in data set [9], in [10] and in [15] was Active. In [5], the inhibition entry was “Dose-Dependent Effect”. For the same compound, the half-life in [8] is 6.7 h. In addition, the inhibition entry in data set [12] was “Active”. The 50% inhibitory concentration (IC50) in [13] and in data set [18] was 33.6 µM each time. In data set [14], this compound returned a Cmax of 8370 ng/mL. Further, the AUC(0-inf) in [16] came out at 86200 ng·h/mL. In [17], the Kp at 6 h was determined as 0.65. Also, in data set [20], the AUC(0-t) at 24 h is 78400 ng·h/mL.

What is called Tmax is the time from dosing to the highest level. As usually defined, the half-life is the time needed for the level to fall by half in the phase considered. What is called IC50 is the concentration that inhibits the measured activity by half. In general, Cmax refers to the highest concentration seen after dosing. By AUC(0-inf) is commonly meant the area under the concentration-time curve extrapolated to infinity. Usually AUC(0-t) stands for exposure summed from dosing to a finite time, without extrapolation to infinity.
